Assay results: patent US4416877A, “Anti-atherosclerotic pharmaceutical compositions containing diphosphonate compounds” (priority 1979, dated 1983)
Like-named read-outs stand apart in the source and are kept apart here.

Assays:
plasma lipoproteins = assay: Plasma lipoproteins in Cynomolgus monkeys fed simultaneously a high cholesterol diet during 60 days; format: in vivo; details: for HDL Chol. / α/β Chol. ratio: n = 7
Experimental: | Dose: 25 mg d.i.d. per day

tissue cholesterol = assay: Effects in cholesterol fed rats (serum, liver and aorta lipids); format: in vivo; details: for change in vivo at 200 mg/kg/day: Rattus norvegicus
Summary of the method: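 Rats given a high fat–high cholesterol diet (4.5% cholesterol, 1.8% sodium cholate) for 10 days to 3 months, then normal food plus compound at 200 mg/kg/day for 10 days to 3 months. Liver and aorta lipids Folch-extracted; total lipids by sulfophosphovanillic reaction, cholesterol by Liebermann–Burchard or enzymatic method. Values expressed as % of control.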

blood pressure = assay: Cardiovascular changes (blood pressure, heart rate) produced by one dose in a Cynomolgus monkey; format: in vivo; details: for Blood pressure / Heart Rate: 250 mg/kg p.o.
lipoprotein cholesterol [1] = assay: Lipoprotein changes in normal Cynomolgus monkeys treated during 60 days; format: in vivo; details: for Total Cholesterol / alpha Cholesterol / alpha/beta Cholesterol Ratio / beta Cholesterol: n = 7
Experimental: To further test the long term efficacity of compound 16, normal male and female Cynomolgus monkeys were treated during 60 days (Table XIII).
Dose: 25 mg/kg/day for 45 days 50 mg/kg/day for last 15 days

[2] = test system: alpha/beta cholesterol ratio; assay: Comparison of clofibrate, gemfibrozil and fenofibrate to compound 16: alpha/beta cholesterol ratio in normal Wistar rats; format: in vivo; details: 100 mg/kg for 10 days, n = 5
Experimental: It should be noted that these diphosphonate compounds are different and novel in comparison to the classical hypolipidemic compounds as illustrated in Table V. The diphosphonate ester used for comparison was the only one to increase the alpha/beta cholesterol ratio in control rats.
Each drug was administered at 100 mg/kg for 10 days

[3] = Weight of fat tissue from rats treated for 90 days; format: in vivo, male and female rats
Experimental: Treating male and female rats with 40, 400 and 800 mg/kg of compound 16 per day for 90 days produced a sustained dose response augmentation in serum high density lipoprotein cholesterol (HDL-C or α-cholesterol) as high as 220% above controls at high dose level (Table VI).

lipoprotein cholesterol [4] = assay: Lipoprotein cholesterol in cholesterol pre-fed rabbits; format: in vivo; details: 200 mg/kg per day, 4 months, n = 5
Text: Animals were fed a cholesterol rich diet for 8 weeks before treatment was
started which continued for 4 months without cholesterol supplement.

lipoproteins = assay: Effect on lipoproteins from 5 treated human patients; format: in vivo; details: for HDL2 Cholesterol / HDL2 Free/Total Cholesterol ratio / HDL3 Cholesterol / HDL3 Free/Total Cholesterol ratio / LDL Cholesterol / LDL Free/Total Cholesterol ratio / VLDL Cholesterol / VLDL Free/Total Cholesterol ratio: n = 5; for HDL2 Free/Total Cholesterol ratio, % change / HDL3 Cholesterol, % change / HDL3 Free/Total Cholesterol ratio, % change / VLDL Free/Total Cholesterol ratio, % change: vs pre-test
Experimental: Five human patients were treated over several days with either 5 mg/kg or 10 mg/kg of compound 16 (Table XV). […] It is generally recognized that an increase in free cholesterol ratio is indicative of an increased clearing or turnover of the lipoprotein cholesterol (Schwartz, C. C. Biochem. Biophys. Acta 663:143-162, 1981).

[5] = Atheromateous surface involvement and intima thickening of aortas in cholesterol pre-fed rabbits; format: in vivo; details: 4 months
liver cholesterol = assay: Liver cholesterol clearing activity in cholesterol pre-fed rabbits; format: in vivo; details: 4 months; for Liver Cholesterol / Liver Cholesterol Free/Ester Ratio / Liver Phospholipids / Liver Total Lipids / Liver/Body Weight % Change: n = 5
[6] = 30 days on high cholesterol diet
[7] = 60 days on high cholesterol diet
[8] = cholesterol fed rats (C.F), 200 mg/kg/day
[9] = 60 days, 50 mg/kg/day for last 15 days

With `COP(=O)(OC)OC(c1ccc(Cl)cc1)P(=O)(OC)OC` (stereo not drawn) [Compound 16, Dimethyl α(dimethoxyphosphinyl) p-chlorobenzyl phosphate] the “HDL Chol.” value (plasma lipoproteins; [6]) was 49 ± 4 mg/100 ml, the “α/β Chol. ratio” value (plasma lipoproteins; [6]) was 0.22 ± 0.05 and the “HDL Chol.” value (plasma lipoproteins; [7]) was 39 ± 6 mg/100 ml. For the same molecule, the “α/β Chol. ratio” value (plasma lipoproteins; [7]) was 0.22 ± 0.05, the “HDL-C values and α/β ratios” value (plasma lipoproteins; simultaneous cholesterol feeding, 60 days) was “increase HDL-C values and the α/β ratios” and the change in vivo at 200 mg/kg/day (tissue cholesterol; cholesterol fed rats (C.F), 200 mg/kg/day, read-out: Liver Chol. (% control values)) was -57%. For the same molecule, the change in vivo at 200 mg/kg/day (tissue cholesterol; cholesterol fed rats (C.F), 200 mg/kg/day, read-out: Liver Total Lipids (% control values)) was -32%, the “liver total lipids and/or liver cholesterol” value (tissue cholesterol; cholesterol fed rats) was “decreased significantly” and the “Aorta Chol. (% control values)” value (tissue cholesterol; [8]) was -30%. For the same molecule, the “Aorta Total Lipids (% control values)” value (tissue cholesterol; [8]) was -37%, the “Serum Chol. α/β (% control values)” value (tissue cholesterol; [8]) was “+169%” and the “decrease of blood pressure” value (blood pressure; 250 mg/kg oral, six hours period) was “at least 40%”. The Blood pressure (blood pressure; +1h) was 65 mmHg, the “Heart Rate” value (blood pressure; +1h) was 195 beat/min and the Blood pressure (blood pressure; +2h) was 70 mmHg. The Blood pressure (blood pressure; +3h) was 100 mmHg, the “Heart Rate” value (blood pressure; +3h) was 195 beat/min and the Blood pressure (blood pressure; +5h) was 95 mmHg. The “Heart Rate” value (blood pressure; +5h) was 210 beat/min, the Blood pressure (blood pressure; +6h) was 105 mmHg and the “Heart Rate” value (blood pressure; +6h) was 210 beat/min. For the same molecule, the “Total Cholesterol” value (lipoprotein cholesterol [1]; 45 days, 25 mg/kg/day) was 99 ± 8 mg/100 ml, the “alpha Cholesterol” value (lipoprotein cholesterol [1]; 45 days, 25 mg/kg/day) was 54 ± 5 mg/100 ml and the “alpha/beta Cholesterol Ratio” value (lipoprotein cholesterol [1]; 45 days, 25 mg/kg/day) was 1.17. For the same molecule, the “beta Cholesterol” value (lipoprotein cholesterol [1]; 45 days, 25 mg/kg/day) was 46 ± 4 mg/100 ml, the “Total Cholesterol” value (lipoprotein cholesterol [1]; [9]) was 85 ± 7 mg/100 ml and the “alpha Cholesterol” value (lipoprotein cholesterol [1]; [9]) was 46 ± 4 mg/100 ml. The “alpha/beta Cholesterol Ratio” value (lipoprotein cholesterol [1]; [9]) was 1.09, the “beta Cholesterol” value (lipoprotein cholesterol [1]; [9]) was 41 ± 5 mg/100 ml and the “HDL (α-cholesterol) and α/β ratio” value (lipoprotein cholesterol [1]; normal monkeys) was “augmentation in HDL (α-cholesterol) and a significant increase in α/β ratio”. The “blood urea levels” value (lipoprotein cholesterol [1]; normal monkeys, treated vs controls) was “significantly lower”, the “alpha/beta Cholesterol Ratio” value [2] was 9.69 ± 0.76 and the “decreasing the weight of fat tissue” value ([3]; 40, 400 and 800 mg/kg) was “impressive dose response effect in decreasing the weight of fat tissue”. The “Weight of fat tissue” value ([3]; females, 40 mg/kg, n = 10) was 1.33 ± 0.66 g, the “Weight of fat tissue” value ([3]; females, 400 mg/kg, n = 5) was 0.39 ± 0.24 g and the “Weight of fat tissue” value ([3]; females, 800 mg/kg, n = 5) was 0.48 ± 0.14 g. The “Weight of fat tissue” value ([3]; males, 40 mg/kg, n = 8) was 2.49 ± 0.94 g, the “Weight of fat tissue” value ([3]; males, 400 mg/kg, n = 5) was 1.95 ± 0.52 g and the “Weight of fat tissue” value ([3]; males, 800 mg/kg, n = 5) was 0.97 ± 0.30 g. For the same molecule, the “Total Cholesterol” value (lipoprotein cholesterol [4]) was 127.0 ± 68.0, the α-chol (lipoprotein cholesterol [4]) was 41.1 ± 11.1 and the α/β-ratio (lipoprotein cholesterol [4]) was 0.94. The β-chol (lipoprotein cholesterol [4]) was 63.4 ± 43.0, the α/β-ratio (lipoprotein cholesterol [4]; listed as Cpd 16) was 0.94 ± 0.20 and the “HDL2 Cholesterol” value (lipoproteins; 5 mg/kg) was 0.82 ± 0.13 mmol/L. For the same molecule, the “HDL2 Free/Total Cholesterol ratio” value (lipoproteins; 5 mg/kg) was 0.231 ± 0.027, the “HDL3 Cholesterol” value (lipoproteins; 5 mg/kg) was 0.72 ± 0.09 mmol/L and the “HDL3 Free/Total Cholesterol ratio” value (lipoproteins; 5 mg/kg) was 0.242 ± 0.018. The “LDL Cholesterol” value (lipoproteins; 5 mg/kg) was 3.05 ± 0.26 mmol/L, the “LDL Free/Total Cholesterol ratio” value (lipoproteins; 5 mg/kg) was 0.304 ± 0.005 and the “VLDL Cholesterol” value (lipoproteins; 5 mg/kg) was 0.20 ± 0.03 mmol/L. The “VLDL Free/Total Cholesterol ratio” value (lipoproteins; 5 mg/kg) was 0.472 ± 0.019, the “HDL2 Free/Total Cholesterol ratio, % change” value (lipoproteins; 5 mg/kg) was “+24%” and the “HDL3 Cholesterol, % change” value (lipoproteins; 5 mg/kg) was “+36%”. The “HDL3 Free/Total Cholesterol ratio, % change” value (lipoproteins; 5 mg/kg) was “+12%”, the “VLDL Free/Total Cholesterol ratio, % change” value (lipoproteins; 5 mg/kg) was “+14%” and the “HDL2 Cholesterol” value (lipoproteins; 10 mg/kg) was 0.87 ± 0.07 mmol/L. The “HDL2 Free/Total Cholesterol ratio” value (lipoproteins; 10 mg/kg) was 0.221 ± 0.003, the “HDL3 Cholesterol” value (lipoproteins; 10 mg/kg) was 0.60 ± 0.02 mmol/L and the “HDL3 Free/Total Cholesterol ratio” value (lipoproteins; 10 mg/kg) was 0.285 ± 0.044. For the same molecule, the “LDL Cholesterol” value (lipoproteins; 10 mg/kg) was 2.86 ± 0.23 mmol/L, the “LDL Free/Total Cholesterol ratio” value (lipoproteins; 10 mg/kg) was 0.303 ± 0.002 and the “VLDL Cholesterol” value (lipoproteins; 10 mg/kg) was 0.26 ± 0.03 mmol/L. For the same molecule, the “VLDL Free/Total Cholesterol ratio” value (lipoproteins; 10 mg/kg) was 0.519 ± 0.031, the “HDL2 Free/Total Cholesterol ratio, % change” value (lipoproteins; 10 mg/kg) was “+19%” and the “HDL3 Cholesterol, % change” value (lipoproteins; 10 mg/kg) was “+13%”. For the same molecule, the “HDL3 Free/Total Cholesterol ratio, % change” value (lipoproteins; 10 mg/kg) was “+32%”, the “VLDL Free/Total Cholesterol ratio, % change” value (lipoproteins; 10 mg/kg) was “+25%” and the “HDL3-cholesterol” value (lipoproteins; human patients, 5 or 10 mg/kg) was “significant increase”. For the same molecule, the “free/total cholesterol ratio in isolated lipoprotein fractions” value (lipoproteins; human patients, 5 or 10 mg/kg) was “significantly elevated”, the “Arch Intima/Media Ratio” value ([5]; 100 mg/kg/day, n = 4) was 0.79 and the “Arterial Wall Thickness, Arch Intima” value ([5]; 100 mg/kg/day, n = 4) was 41.82 ± 0.93 Units in Area. The “Arterial Wall Thickness, Thoracic Intima” value ([5]; 100 mg/kg/day, n = 4) was 7.66 ± 0.12 Units in Area, the “Surface Involved in Atheromateous Plaques, Arch” value ([5]; 100 mg/kg/day, n = 4) was 88 ± 9% and the “Surface Involved in Atheromateous Plaques, Thoracic” value ([5]; 100 mg/kg/day, n = 4) was 50 ± 15%. For the same molecule, the “Surface Involved in Atheromateous Plaques, Total Aorta” value ([5]; 100 mg/kg/day, n = 4) was 68 ± 12%, the “Thoracic Intima/Media Ratio” value ([5]; 100 mg/kg/day, n = 4) was 0.23 and the “aorta intimal thickening” value ([5]; cholesterol pre-fed rabbits) was “decreased aorta intimal thickening”. For the same molecule, the “atherosclerosis surface involvement” value ([5]; cholesterol pre-fed rabbits) was “decreased atherosclerosis surface involvement”, the “Liver Cholesterol” value (liver cholesterol; 100 mg/kg/day) was 3.1 ± 1.2 mg/g and the “Liver Cholesterol Free/Ester Ratio” value (liver cholesterol; 100 mg/kg/day) was 2.23 ± 0.27. The “Liver Phospholipids” value (liver cholesterol; 100 mg/kg/day) was 20.7 ± 2.7 mg/g, the “Liver Total Lipids” value (liver cholesterol; 100 mg/kg/day) was 20.5 ± 3.4 mg/g and the “Liver/Body Weight % Change” value (liver cholesterol; 100 mg/kg/day) was “+8%”. For the same molecule, the “Liver Cholesterol” value (liver cholesterol; 200 mg/kg/day) was 3.9 ± 1.4 mg/g, the “Liver Cholesterol Free/Ester Ratio” value (liver cholesterol; 200 mg/kg/day) was 2.24 ± 0.46 and the “Liver Phospholipids” value (liver cholesterol; 200 mg/kg/day) was 26.3 ± 3.1 mg/g. For the same molecule, the “Liver Total Lipids” value (liver cholesterol; 200 mg/kg/day) was 25.9 ± 2.9 mg/g, the “Liver/Body Weight % Change” value (liver cholesterol; 200 mg/kg/day) was “+12%” and the “pre-established cholesterol deposits, liver” value (liver cholesterol; cholesterol pre-fed rabbits) was “effectively decreased the pre-established cholesterol deposits”.
